Assay results from patent US10537590B2, “Cyclic dinucleotide compounds” (BOEHRINGER INGELHEIM INTERNATIONAL GMBH, priority 2016, dated 2020).
Structures can show the parent of a compound that is named as a salt.

Tests used:
[1] = Mouse PK, plasma concentration after intravenous administration; type: in vivo; settings: male C57BL/6NRj mouse, 10 μmol/Kg, mean of duplicate experiments
Method: The mouse PK of compounds of the invention was determined using the following method:
The compound was dissolved in a solution of physiological NaCl and administered intravenously to male C57BL/6NRj mouse at a dose of 10 μmol/Kg. A 20 μL blood sample was collected at 0.25, 0.5, 0.75, 1 and 2 h by taking ETDA as anticoagulant. Blood plasma was generated by centrifugation and stored at −20° C. The compound concentration was determined by LC-MS/MS.

[2] = biological target: human STING protein in THP1-Blue ISG cells (Homo sapiens, UniProt Q86WV6, G230A/H232R/R293Q/R71H); experiment: In vitro cytokine induction, THP1-Blue ISG IRF-inducible SEAP reporter assay; settings: 24 hours incubation, OD at 620 nm
Method: In Vitro Cytokine Induction
Using Invivogen's QUANTI-Blue™ colorimetric enzyme assay and a suitable optical density (OD) reader the activity of SEAP can be detected and quantified.
Measurements of SEAP activity were performed in THP1-Blue ISG cells stably expressing the human STING protein and the IRF-inducible SEAP reporter construct. Cells were cultivated for expansion in RPM11640 medium with 10% fetal calf serum, 50 μg/ml Penicillin-Streptomycin, 100 μg/ml Zeocin, and 100 μg/ml Normocin in a 37°, 95% humidity and 5% CO2 incubator. Assay-ready cells were stored as frozen stocks In preparation for the assay, the cells thawed in Zeocin-/Normocin-free medium and were distributed into the assay plates with a density of 15000 cells/15 μL per well. Compounds were prepared by an 8 or 16 point serial dilution in 50% aqueous DMSO and a final dilution step into medium to ensure a final DMSO concentration of 0.5% in the assay. 5 μL of diluted compounds plus 5 μL medium were added to the plates, followed by a 24 hours incubation at 37° C.
At the day of the assay, 75 μl per well of Quanti-Blue reagent was added to all wells of the plate and the plate was incubated another 30 minutes at 37° C. The OD at 620 nm was measured on the EnVision reader (PerkinElmer).

[3] = biological target: Human STING (hSTING, residues 155-341, wild-type sequence) (Homo sapiens, UniProt Q86WV6, H232R); experiment: Differential Scanning Fluorimetry (DSF), hSTING Tm shift; type: binding; settings: 100 uM test compound, 3 uM target protein; for hSTING Tm shift: Sodium Salt
Source text: The dissociation curves were processed in Bio-Rad CFX Manager. • Peak type was set to “negative”.

Chain of Human STING (hSTING, residues 155-341, wild-type sequence) (Q86WV6 155-341 H232R): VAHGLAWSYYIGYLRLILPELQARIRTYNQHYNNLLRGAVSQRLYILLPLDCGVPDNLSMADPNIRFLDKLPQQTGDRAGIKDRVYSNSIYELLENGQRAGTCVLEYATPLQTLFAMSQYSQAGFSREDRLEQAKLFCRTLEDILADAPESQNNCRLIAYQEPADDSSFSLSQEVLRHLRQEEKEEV
Chain of human STING protein in THP1-Blue ISG cells (Q86WV6 whole entry R71H/G230A/H232R/R293Q, the tested form may be a part): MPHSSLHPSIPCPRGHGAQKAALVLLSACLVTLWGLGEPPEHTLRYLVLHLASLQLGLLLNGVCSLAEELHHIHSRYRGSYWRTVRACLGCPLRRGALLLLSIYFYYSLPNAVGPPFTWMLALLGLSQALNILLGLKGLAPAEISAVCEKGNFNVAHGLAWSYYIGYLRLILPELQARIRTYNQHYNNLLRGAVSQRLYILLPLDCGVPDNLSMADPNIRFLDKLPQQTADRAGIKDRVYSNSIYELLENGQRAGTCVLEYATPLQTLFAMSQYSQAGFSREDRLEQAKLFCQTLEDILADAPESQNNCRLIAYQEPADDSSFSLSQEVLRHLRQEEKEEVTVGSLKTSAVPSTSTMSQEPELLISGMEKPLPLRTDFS

SMILES | compound concentration in plasma, T = 0.25 h [1] [nM] | compound concentration in plasma, T = 0.5 h [1] [nM] | compound concentration in plasma, T = 0.75 h [1] [nM] | compound concentration in plasma, T = 1 h [1] [nM] | compound concentration in plasma, T = 2 h [1] [nM] | EC50 [2] [µM] | hSTING Tm shift [3] [°C] | ΔTm at 100 µM [3] [°C]
Nc1ncnc2c1ncn2[C@@H]1O[C@@H]2COP(=O)(S)O[C@H]3C(n4cnc5c(=O)[nH]ncc54)O[C@H](COP(=O)(S)O[C@H]2[C@H]1O)[C@H]3O (single isomer, unassigned) [Example 1.1, Cyclic (imidazopyridazinon-β-D-ribofuranoside-(2′→5′)-phosphorothioate-adenosine-(3′→5′)-phosphorothioate)] | 3080 | 1200 | 550 | 249 | 120 |  |  | 
O=c1[nH]ncc2c1ncn2[C@@H]1O[C@@H]2COP(=O)(S)O[C@H]3[C@@H](O)[C@H](n4cnc5cncnc54)O[C@@H]3COP(=O)(S)O[C@@H]1[C@@H]2O (single isomer, unassigned) [Example 4.2, Cyclic (imidazopyridazinon-β-D-ribofuranoside-(2′→5′)-phosphorothioate-purine-β-D ribofuranoside-(3′→5′)-phosphorothioate), Sodium Salt] |  |  |  |  |  | 6.2 | 9.0 | 
Nc1ncnc2c1ncn2[C@@H]1O[C@]23CO[C@@H]1[C@@H]2OP(=O)(S)OC[C@H]1O[C@@H](n2cnc4c(=O)[nH]ncc42)[C@H](OP(=O)(S)OC3)[C@@H]1O (single isomer, unassigned) [Example 3.2, Cyclic (imidazopyridazinon-β-D-ribofuranoside-(2′→5′)-phosphorothioate-LNA-adenine-(3′→5′)-phosphorothioate), Sodium Salt] |  |  |  |  |  | 8.5 |  | 9
Nc1ncnc2c1ncn2[C@@H]1O[C@@H]2COP(=O)(S)O[C@@H]3[C@H](O)[C@@H](COP(=O)(S)O[C@H]2[C@H]1F)O[C@H]3n1cnc2c(=O)[nH]ncc21 (single isomer, unassigned) [Example 2.1, Cyclic (imidazopyridazinon-β-D-ribofuranoside-(2′→5′)-phosphorothioate-2′-F-2′-deoxyadenosine-(3′→5′)-phosphorothioate] | 1970 | 699 | 401 | 241 | 78 |  |  | 
O=c1[nH]ncc2c1ncn2[C@@H]1O[C@@H]2COP(=O)(S)O[C@H]3[C@@H](O)[C@H](n4cnc5cncnc54)O[C@@H]3COP(=O)(S)O[C@@H]1[C@@H]2O (single isomer, unassigned) [Example 4.1, Cyclic (imidazopyridazinon-β-D-ribofuranoside-(2′→5′)-phosphorothioate-purine-β-D ribofuranoside-(3′→5′)-phosphorothioate), Sodium Salt] |  |  |  |  |  | 0.19 |  | 13.9
Nc1ncnc2c1ncn2[C@@H]1O[C@]23CO[C@@H]1[C@@H]2OP(=O)(S)OC[C@H]1O[C@@H](n2cnc4c(=O)[nH]ncc42)[C@H](OP(=O)(S)OC3)[C@@H]1O (single isomer, unassigned) [Example 3.1, Cyclic (imidazopyridazinon-β-D-ribofuranoside-(2′→5′)-phosphorothioate-LNA-adenine-(3′→5′)-phosphorothioate), Sodium Salt] | 2710 | 1280 | 595 | 260 | 111 | 0.17 | 17.0 | 
